This note sets out measurements from ChEMBL document CHEMBL5360538, “Recent updates on 1,2,3-triazole-containing hybrids with in vivo therapeutic potential against cancers: A mini-review” (Eur J Med Chem, 2023).

Assay [1] concerns NCI-H1650. The experiment in a line: Antiproliferative activity against drug-sensitive human NCI-H1650 cells assessed as inhibition of cell growth incubated for 48 hrs by MTT assay. The settings on record: NCI-H1650, 48 h, pooled result: one value given for 9 cell lines, strains, targets or settings. The class given is functional, cell-based.
The subject of assay [2] is KYSE-450. As to the kind of experiment: Antitumor activity against human KYSE-450 cells xenografted in nu/nu nude mouse model assessed as inhibition of tumor growth at 25 mg/kg, ip administered every day for 15 days relative to control. The settings on record: KYSE-450, 360 h, time 15 day. Type of assay: functional.
For assay [3], the system named is MCF7. As to the kind of experiment: Antiproliferative activity against human MCF7 cells assessed as inhibition of cell growth incubated for 48 hrs by MTT assay. The class given is functional, cell-based. The settings on record: MCF7, 48 h.
Assay [4] relates to LA7. As to the kind of experiment: Antitumor activity against rat LA7 cells xenografted in mouse assessed as inhibition of tumor growth at 5 mg/kg, po administered daily for 21 days relative to control. Type of assay: functional. The settings on record: LA7, 504 h, time 21 day.
The test system of assay [5] is LA7. As to the kind of experiment: Antiproliferative activity against rat LA7 cells assessed as inhibition of cell growth incubated for 48 hrs by MTT assay. The settings on record: LA7, 48 h. Type of assay: functional, cell-based.
Assay [6] deals with MDA-MB-231. The experiment in a line: Antiproliferative activity against human MDA-MB-231 cells assessed as reduction in cell viability by MTS assay. The class given is functional, cell-based.
Assay [7] has as its system NCI-H211. As to the kind of experiment: Antiproliferative activity against human NCI-H211 cells assessed as reduction in cell viability by MTS assay. Type of assay: functional, cell-based.
The subject of assay [8] is SGC-7901. The experiment in a line: Antiproliferative activity against human SGC-7901 cells assessed as inhibition of cell growth by MTT assay. Type of assay: functional, cell-based.
The test system of assay [9] is A549. As to the kind of experiment: Antiproliferative activity against human A549 cells assessed as inhibition of cell growth by MTT assay. Type of assay: functional, cell-based.
Assay [10] has as its system KYSE-510. The experiment in a line: Potency index, ratio of 5-fluorouracil IC50 to test compound IC50 for antiproliferative activity against human KYSE-510 cells assessed as inhibition of cell growth incubated for 72 hrs by MTT assay. The class given is functional.
Assay [11] has as its system KYSE-150 cell line. As to the kind of experiment: Antiproliferative activity against human KYSE-150 cells assessed as inhibition of cell growth incubated for 72 hrs by MTT assay. Type of assay: functional, cell-based. The settings on record: KYSE-150, 72 h, pooled result: one value given for 5 cell lines, strains, targets or settings.
Assay [12] has as its system KYSE-270. As to the kind of experiment: Potency index, ratio of 5-fluorouracil IC50 to test compound IC50 for antiproliferative activity against human KYSE-270 cells assessed as inhibition of cell growth incubated for 72 hrs by MTT assay. Type of assay: functional.
The subject of assay [13] is TE-1. As to the kind of experiment: Potency index, ratio of 5-fluorouracil IC50 to test compound IC50 for antiproliferative activity against human TE-1 cells assessed as inhibition of cell growth incubated for 72 hrs by MTT assay. Type of assay: functional.
Assay [14] has as its system ECa-109 cell line. As to the kind of experiment: Antitumor activity against human EC109 cells xenografted in BALB/c nude mouse model assessed as inhibition of tumor growth at 60 mg/kg, po relative to control. Type of assay: functional.
Assay [15] deals with KYSE-150 cell line. The experiment in a line: Potency index, ratio of 5-fluorouracil IC50 to test compound IC50 for antiproliferative activity against human KYSE-150 cells assessed as inhibition of cell growth incubated for 72 hrs by MTT assay. Type of assay: functional.
Assay [16] has as its system ECa-109 cell line. As to the kind of experiment: Potency index, ratio of 5-fluorouracil IC50 to test compound IC50 for antiproliferative activity against human EC109 cells assessed as inhibition of cell growth incubated for 72 hrs by MTT assay. The class given is functional.
Assay [17] concerns Ehrlich. The experiment in a line: Antitumor activity against mouse EAC cells implanted in Swiss albino mouse assessed as tumor growth inhibition at 5.0 mg/kg, ip administered alternate days for 10 days relative to control. The class given is functional. The settings on record: 240 h, time 10 day, read-out: TGI.
In assay [18] the test system is MDA-MB-231. The experiment in a line: Antiproliferative activity against human MDA-MB-231 cells assessed as inhibition of cell growth incubated for 48 hrs by MTT assay. The class given is functional, cell-based. The settings on record: MDA-MB-231, 48 h.
Assay [19] relates to Caov-3 cell line. As to the kind of experiment: Antiproliferative activity against human Caov-3 cells assessed as reduction in cell viability by MTT assay. The class given is functional, cell-based.
Assay [20] deals with OVCAR-8. As to the kind of experiment: Antiproliferative activity against human OVCAR-8 cells assessed as reduction in cell viability by MTT assay. Type of assay: functional, cell-based.
Assay [21] deals with OC-314. As to the kind of experiment: Antiproliferative activity against human OC-314 cells assessed as reduction in cell viability by MTT assay. Type of assay: functional, cell-based.
Assay [22] concerns SK-OV-3. The experiment in a line: Antiproliferative activity against human SK-OV-3 cells assessed as reduction in cell viability by MTT assay. Type of assay: functional, cell-based.
Assay [23] deals with OVCAR-8. The experiment in a line: Antitumor activity against human OVCAR-8 cells xenografted in nude mouse assessed as inhibition of tumor growth at 100 mg/kg, IG administered daily for 21 days relative to control. Type of assay: functional. The settings on record: OVCAR-8, po, 504 h, time 21 day.
Assay [24] can be described thus: animal or person. Type of assay: functional. The settings on record: Mus musculus, Lewis lung carcinoma, 480 h, route ip, time 20 day.
The nature of assay [25]: Antitumor activity against mouse Lewis lung carcinoma cells implanted in C57BL/6J mouse model assessed as inhibition of tumor growth at 5.0 mg/kg, ip administered alternate days for 20 days in presence of 5.0 mg/kg gefitinib relative to control. The settings on record: 480 h, time 20 day. Type of assay: functional.
In assay [26] the test system is A549. As to the kind of experiment: Antiproliferative activity against human A549 cells assessed as inhibition of cell growth incubated for 24 hrs by MTT assay. Type of assay: functional, cell-based. The settings on record: A549, 24 h.
The subject of assay [27] is MGC-803. The experiment in a line: Antitumor activity against human MGC-803 cells xenografted in SCID mouse model assessed as inhibition of tumor growth at 50 mg/kg, po relative to control. Type of assay: functional.
For assay [28], the system named is SGC-7901. As to the kind of experiment: Antiproliferative activity against human SGC-7901 cells assessed as inhibition of cell growth incubated for 72 hrs by MTT assay. Type of assay: functional, cell-based. The settings on record: SGC-7901, 72 h.
The subject of assay [29] is A549. As to the kind of experiment: Antitumor activity against human A549 cells xenografted in Kunming mouse model assessed as inhibition of tumor growth at 20 mg/kg, iv administered twice daily for 2 weeks relative to control. Type of assay: functional. The settings on record: A549, 336 h.

With `FC(F)(F)c1ccc(-n2cc(-c3cccc(Nc4ncnc5cc6c(cc45)OCCOCCOCCO6)c3)nn2)cc1`, the IC50 in [1] turned out to be 3260 nM. In addition, the inhibition in vivo at 25 mg/kg in assay [2] was determined as 25%.
As to `O=C1/C(=C/c2ccccc2F)CN(Cc2cn(Cc3ccc(F)cc3)nn2)C/C1=C\c1ccccc1F`, the IC50 was 2100 nM in assay [3] and 3100 nM in assay [5]. For the same molecule, the inhibition in vivo at 5 mg/kg in assay [4] turned out to be 80%.
For `Cc1nnn(C)c1-c1cnc2c3ccc(C(C)(C)O)cc3n([C@H](c3ccccc3)C3CCOCC3)c2c1` [EZOBRESIB], the half-maximal inhibitory concentration (IC50) in [6] turned out to be 4.97 nM; in [7] it was 6.57 nM.
As for `COc1cc2c(c(OC)c1OC)-c1ccc(OC)c(=O)cc1[C@@H](NC(C)=O)CC2` [COLCHICINE], the 50% inhibitory concentration (IC50) in [8] and in [9] was 43 nM in each case.
Regarding `COc1cnc(Cn2cc(CNC(=O)c3c(F)c(F)c(F)c(F)c3F)nn2)c(OC)c1`, the “Ratio IC50” value in assay [10], in assay [12], in assay [13], in assay [15] and in [16] was 3.1 each time. In assay [11], the IC50 came out at 830 nM. Also, the inhibition in vivo at 60 mg/kg in assay [14] came to 60%.
`NS(=O)(=O)NCCNC(=O)c1n[nH]nc1-c1ccc(F)c(F)c1`: the inhibition in vivo at 5 mg/kg in assay [17] was > 80%. Besides, the IC50 in assay [18] is 77 nM.
For the molecule `O=S(=O)(NCc1cn(Cc2cccc(Oc3ccccc3)c2)nn1)c1ccc(F)cc1`, the half-inhibitory concentration (IC50) in assay [19], in assay [20], in [21] and in [22] was 540 nM each time. Further, the inhibition in vivo at 100 mg/kg in assay [23] came out at 61.8%.
As to `COc1ccc(-c2cn(CC3(C)C=Cc4cc(N)ccc4O3)nn2)cc1` (stereo not given), the inhibition in vivo at 5 mg/kg in [24] stood at 50%; in assay [25], 80%. In addition, the IC50 in assay [26] amounted to 2 nM.
With `COc1ccc(-n2cc(CN3c4ccccc4Sc4ccccc43)nn2)c([N+](=O)[O-])c1`, the inhibition in vivo at 50 mg/kg in assay [27] worked out at 70.1%.
With `O=c1[nH]cc(F)c(=O)[nH]1` [FLUOROURACIL], the IC50 was 7730 nM in [11] and 26300 nM in assay [28]. Besides, the inhibition in vivo at 20 mg/kg in assay [29] worked out at 64.7%.
